Experiments:
[1] = biological target: T1, cTLR2 protein (Mus musculus, UniProt Q9QUN7); assay: Thermal shift assay of cTLR2 with TIDM peptides; type: binding; settings: 10 μM peptide
T1 construct: The cTLR2 (640-784 amino acids) tagged with c-myc was cloned in lenti vector; made in house; host or cells: HEK293 cells (lentiviral expression)
Protocol: Thermal shift assays were performed in an Applied Biosystems 7500 standard real-time thermal cycler machine as described before (52, 53). For each reaction, purified protein (0.5 μg to 1 μg) was added to 18 μL of thermal shift buffer provided with the kit, and 1-2 μL of dye. Reaction was set 96 well PCR plate in the dark and then placed in the thermal cycler machine using the following two-stage program [(25° C. for 2 mins) 1 cycle; ([…]) 70 cycles; auto increment 1° C. for both stages]. The filter was set at ROX with no quencher filter and no passive filter.

[2] = test system: A53T α-syn Tg mice; assay: α-Synucleinopathy in A53T α-syn Tg mice; type: in vivo, mouse; settings: 0.1 mg/kg body wt/d intranasal, 30 d
Protocol: FIG. 28 (A-B). Intranasal wtTIDM peptide attenuates microglial inflammation in the nigra of A53T α-syn Tg mice. A53T mice (male; 9-month old; n=6 per group) were treated with TIDM peptides via intranasal route at a dose of 0.1 mg/kg body wt/d for 30 d followed by double-label immunofluorescence analysis of nigral sections for Iba-1 and inducible nitric oxide synthase (iNOS) (A). Magnified images of selected area are shown at the bottom row. The iNOS (+ve) cells were counted in two sections of each of six mice per group and presented as cells/mm2.
FIG. 29 (A-B). Intranasal wtTIDM peptide stimulates microglial expression of arginase-1 in the nigra of A53T α-syn Tg mice. A53T mice (male; 9-month old; n=6 per group) were treated with TIDM peptides via intranasal route at a dose of 0.1 mg/kg body wt/d for 30 d followed by double-label immunofluorescence analysis of nigral sections for Iba-1 and arginase-1 (ARG1) (A). Magnified images of selected area are shown at the bottom row. The ARG-1 (+ve) cells were counted in two sections of each of six mice per group and presented as cells/mm2.
FIG. 30 (A-C). Intranasal wtTIDM peptide reduces α-synucleinopathy in the nigra of A53T α-syn Tg mice. A53T mice (male; 9-month old; n=6 per group) were treated with TIDM peptides via intranasal route at a dose of 0.1 mg/kg body wt/d for 30 d followed by Western blot analysis of nigral extracts for α-syn (A). Bands were scanned and presented as relative to A53T control (B, monomeric α-syn; C, oligomeric α-syn). Results are mean+SEM of six mice per group.
(§1) FIG. 31 (A-D). Intranasal wtTIDM peptide reduces α-synucleinopathy in the nigra of A53T α-syn Tg mice. A53T mice (male; 9-month old; n=6 per group) were treated with TIDM peptides via intranasal route at a dose of 0.1 mg/kg body wt/d for 30 d followed by double-label immunofluorescence analysis of nigral sections for TH and α-syn (mjfr1 Ab) (A). Magnified images of selected area are shown at the leftmost column. Total area (B), average size (C) and integrated density (D) of α-syn-positive cell bodies were calculated. Five cells from each of two nigral sections of six mice per group were analyzed.
as §1, with “FIG. 32 (A-B).” for “FIG. 31 (A-D).”, “for microglial marker Iba-1” for “for TH”, “column. Mean fluorescence intensity (MFI)” for “column. Total area (B), average size (C) and integrated density (D)”, “of (α-syn+Iba-1)-positive” for “of α-syn-positive”, “bodies was” for “bodies were”
FIG. 33 (A-E). Intranasal wtTIDM peptide improve locomotor activities of A53T α-syn Tg mice. A53T mice (male; 9-month old; n=6 per group) were treated with TIDM peptides via intranasal route at a dose of 0.1 mg/kg body wt/d for 30 d followed by monitoring locomotor activities by the Ethovision XT 13.0 Open Field Activity System (Noldus) (A, track plot; B, moving cumulative duration; C, distance; D, velocity; E, rotorod). Results are mean+SEM of six mice per group.

[3] = test system: NF-κB; assay: NF-κB activation by EMSA in BV-2 microglial cells; type: cell-based
Protocol: FIG. 4(A-S). Effect of wtTIDM and mTIDM peptides on the induction of NF-κB activation and the expression of proinflammatory molecules in microglial cells. BV-2 microglial cells preincubated with 10 μM wtTIDM/mTIDM peptides for 1 h were stimulated with 1 μM fibrillar Aβ1-42 (A-C), 1 μM MPP+ (D-F), 250 ng/ml LTA (G-I), […] LPS (J-L), 1 μM flagellin (M-O), and 1 μM CpG DNA (P-R) under serum-free condition. After 1 h of stimulation, the activation of NF-κB was monitored in nuclear extracts by EMSA (A, fibrillar Aβ; D, MPP+; G, LTA; J, LPS; M, flagellin, P; CpG DNA). After 4 h of stimulation, the mRNA expression of IL-1β (B, E, H, K, N, & Q) and iNOS (C, F, I, L, O, & R) was monitored by real-time PCR (B-C, fibrillar Aβ; E-F, MPP+; H-I, LTA; K-L, LPS; N-O, flagellin; Q-R, CpG DNA) (n=2 replicates/dose in 3 independent experiments). ap<0.001 vs control; bp<0.001 vs stimuli by two-sample t-tests. FIG. 4S is a schematic representation of the relationships in microglia of Toll-Like Receptors, the stimulators tested, wTIDM, MyD88 and NF-κB.
FIG. 14 (A-D). Effect of wtTIDM and mTIDM peptides on polyIC-mediated activation of NF-κB activation and the expression of proinflammatory molecules in microglial cells. BV-2 microglial cells preincubated with 10 μM wtTIDM/mTIDM peptides for 1 h were stimulated with 50 μM polyIC. A) After 1 h of stimulation, the activation of NF-κB was monitored in nuclear extracts by EMSA. After 4 h of stimulation, the mRNA expression of IL-1β and iNOS was monitored by semi-quantitative RT-PCR (B) and real-time PCR (C, IL-1β; D, iNOS) (n=2 replicates/condition in 3 independent experiments). ap<0.001 vs control; bp<0.001 vs stimuli by two-sample t-tests.
Nuclear extracts were isolated and EMSA was carried out as described before (22, 23).

T1 sequence (Q9QUN7 640-784): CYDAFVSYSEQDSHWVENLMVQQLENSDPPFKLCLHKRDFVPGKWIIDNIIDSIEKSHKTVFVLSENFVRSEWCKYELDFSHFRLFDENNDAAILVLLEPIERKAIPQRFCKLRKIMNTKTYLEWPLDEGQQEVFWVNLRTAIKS

SMILES	shift (ΔTm) of melting temperature of cTLR2 [1]	protective effect in A53T mice (all readouts) [2]	effect on activation of NF-κB induced by any of the stimuli ([3]; fibrillar Aβ, MPP+, LTA, poly IC, LPS, flagellin, CpG DNA)	arginase-1 in the nigra [2]	locomotor activities of A53T mice [2]	microglial expression of iNOS in the nigra [2]	microglial α-syn in the nigra [2]	oligomeric and monomeric α-syn [2]	α-syn inclusion bodies within tyrosine hydroxylase-positive dopaminergic neurons [2]	inhibition of LTA-mediated activation of NF-κB ([3]; 10 μM peptide 1 h, then 250 ng/ml LTA for 1 h)	suppression of NF-κB activation induced by CpG DNA ([3]; 10 μM peptide 1 h, then 1 μM CpG DNA for 1 h)	suppression of NF-κB activation induced by MPP+ ([3]; 10 μM peptide 1 h, then 1 μM MPP+ for 1 h)	inhibition of fibrillar Aβ-mediated activation of NF-κB ([3]; 10 μM peptide 1 h, then 1 μM fibrillar Aβ1-42 for 1 h)	suppression of NF-κB activation induced by flagellin ([3]; 10 μM peptide 1 h, then 1 μM flagellin for 1 h)	suppression of NF-κB activation induced by poly IC ([3]; 10 μM peptide 1 h, then 50 μM polyIC for 1 h)	suppression of NF-κB activation induced by LPS ([3]; 10 μM peptide 1 h, then 1 mg/ml LPS for 1 h)
CC[C@H](C)[C@H](NC(=O)[C@H](CCCCN)NC(=O)[C@@H](NC(=O)[C@H](CCC(N)=O)NC(=O)[C@H](CCCNC(=N)N)NC(=O)[C@@H](N)CC(=O)O)[C@@H](C)CC)C(=O)N[C@@H](Cc1c[nH]c2ccccc12)C(=O)N[C@@H](Cc1ccccc1)C(=O)N[C@@H](CCC(N)=O)C(=O)N[C@@H](CC(N)=O)C(=O)N[C@@H](CCCNC(=N)N)C(=O)N[C@@H](CCCNC(=N)N)C(=O)N[C@@H](CCSC)C(=O)N[C@@H](CCCCN)C(=O)N[C@@H](Cc1c[nH]c2ccccc12)C(=O)N[C@@H](CCCCN)C(=O)N[C@@H](CCCCN)C(=O)N1CCC[C@H]1C(=O)NCC(=O)N[C@@H](Cc1c[nH]c2ccccc12)C(=O)N[C@@H](Cc1c[nH]cn1)C(=O)N[C@@H](CCC(N)=O)C(=O)N[C@@H](CC(=O)O)C(=O)O [mTIDM, drqikiwfqnrrmkwkkPGWHQD]	0.87 °C	did not exhibit any such protective effect	had no effect													
CC[C@H](C)[C@H](NC(=O)[C@H](CCCCN)NC(=O)[C@@H](NC(=O)[C@H](CCC(N)=O)NC(=O)[C@H](CCCNC(=N)N)NC(=O)[C@@H](N)CC(=O)O)[C@@H](C)CC)C(=O)N[C@@H](Cc1c[nH]c2ccccc12)C(=O)N[C@@H](Cc1ccccc1)C(=O)N[C@@H](CCC(N)=O)C(=O)N[C@@H](CC(N)=O)C(=O)N[C@@H](CCCNC(=N)N)C(=O)N[C@@H](CCCNC(=N)N)C(=O)N[C@@H](CCSC)C(=O)N[C@@H](CCCCN)C(=O)N[C@@H](Cc1c[nH]c2ccccc12)C(=O)N[C@@H](CCCCN)C(=O)N[C@@H](CCCCN)C(=O)N1CCC[C@H]1C(=O)NCC(=O)N[C@@H](C)C(=O)N[C@@H](Cc1c[nH]cn1)C(=O)N[C@@H](CCC(N)=O)C(=O)N[C@@H](CCCCN)C(=O)O [wtTIDM, drqikiwfqnrrmkwkkPGAHQK]	4.96 °C			increase	improved	reduced	decrease	reduction	suppression	inhibited	remained unable to suppress	remained unable to suppress	inhibited	remained unable to suppress	remained unable to suppress	remained unable to suppress

Source: patent US12251422B2, “Compositions and methods for treating neurological and other disorders” (Rush University Medical Center, priority 2018, dated 2025)
